# Measurements: patent US20200038412A1, “METHODS OF TREATING ALZHEIMER'S DISEASE USING AMINOSTEROL COMPOSITIONS” (Enterin, Inc., priority 2018, published 2020)
# Experiments:
# [1] = biological target: T1, αS (Homo sapiens, UniProt P37840); conditions: in vitro (Perni et al. 2017); cited from earlier work
# [2] = biological target: T1, αS; conditions: in vitro; cited from earlier work
# [3] = Preclinical oral dosing in dogs; assay type: in vivo
# [4] = test system: patients with PD and constipation; experiment: Phase 2 trial, all dosed patients (Stage 1 and 2): adverse events; assay type: in vivo, human
# Protocol: Fifty patients were enrolled and 44 were dosed. In Stage 1, 10 patients were dosed, 1 (10%) withdrew prior to completion and 9 (90%) completed dosing. In stage 2, 6 (15%) patients had ≥3 CSBM/week at the end of the run-in period and were excluded, 34 patients were dosed and bowel response was assessable in 31 (91%). Two patients (5.8%) were terminated prior to completion because of recurrent dizziness, and 3 others withdrew during dosing (8.8%): 2 because of diarrhea and 1 because of holiday. Fifteen patients were randomized.
# Most AEs were confined to the GI tract (88% in Stage 1 and 63% in Stage 2). The most common AE was nausea which occurred in 4/10 (40%) patients in Stage 1 and in 18/34 (52.9%) in Stage 2 (Table 2). Diarrhea occurred in 4/10 (40%) patients in Stage 1 and 15/34 (44%) in Stage 2. One patient withdrew because of recurrent diarrhea. Other GI related AEs included abdominal pain 11/44 […], flatulence 3/44 (6.8%), vomiting 3/44 (6.8%), worsening of acid reflux 2/44 (4.5%), and worsening of hemorrhoids 1/44 (2.2%). […] The only other noteworthy AE was dizziness 8/44 (18%). Dizziness was graded as moderate in one patient who was receiving an alpha-adrenergic blocking agent (Terazosin). This patient was withdrawn from the study and recovered spontaneously.
# [5] = Pharmacokinetics of orally administered squalamine (ENT-01) in Stage 1; assay type: in vivo, human
# Protocol: PK data were collected on the 10 patients enrolled in Stage 1 and 10 patients enrolled in Stage 2 to determine the extent of systemic absorption. In Stage 1, PK data were obtained at each visit, pre-medication, at 1, 2, 4, 8 and 24 hours (Table 10). In Stage 2, PK was measured on days 1 and 6 of the randomization period pre-medication, at 1, 2, 4 and 8 hours (Table 11).
# The mean Cmax, Tmax and T1/2 and AUC of the squalamine ion following squalamine (ENT-01) oral dosing for Stage 1 patients. The PK analyses are only approximate, as the lower limit of the validated concentration range was 10 ng/ml; most of the measured concentrations fell below that value. The mean Cmax, Tmax and T1/2 and AUC of the squalamine ion following squalamine (ENT-01) oral dosing for Stage 2 patients. The PK analyses are only approximate, as the lower limit of the validated concentration range was 0.5 ng/ml.
# [6] = test system: patients with PD and constipation; experiment: Phase 2 trial Stage 1: bowel (prokinetic) response to single escalating oral doses; assay type: in vivo, human; conditions: Stage 1, single oral dose
# Protocol: Following successful screening, all subjects underwent a 14-day run-in period where the degree of constipation was assessed through a validated daily log (Zinsmeister et al. 2013) establishing baseline CSBMs/week. Subjects with an average of <3 CSBMs/week proceeded to dosing.
# Tolerability limits included diarrhea or vomiting.
# [7] = Solubility in water; assay type: physicochemical
smiles,measurement,setting,value
"CC(C)[C@@H](CC[C@@H](C)[C@H]1CC[C@H]2[C@@H]3[C@H](O)C[C@H]4C[C@@H](NCCCNCCCCN)CC[C@]4(C)[C@H]3CC[C@]12C)OS(=O)(=O)O (single isomer, unassigned) [squalamine (ENT-01), squalamine]",formation of aggregates of αS,[1],inhibit the formation of aggregates of αS
same,displacement of αS from membranes,[2],can displace αS from membranes
same,bioavailability,[3],limited bioavailability
same,tolerability,[3],well tolerated
same,oral bioavailability,[3]; preclinical studies,about 0.1%
same,patients with worsening of hemorrhoids,[4]; 1/44 dosed patients,2.2%
same,patients with worsening of acid reflux,[4]; 2/44 dosed patients,4.5%
same,patients with flatulence,[4]; 3/44 dosed patients,6.8%
same,patients with vomiting,[4]; 3/44 dosed patients,6.8%
same,patients with dizziness,[4]; 8/44 dosed patients,18%
same,AUC0-8 hr,"[5]; Stage 1, oral 50 mg, 10 patients",18.5 ng·h/mL
same,AUC0-8 hr,"[5]; Stage 1, oral 100 mg, 9 patients",29.6 ng·h/mL
same,AUC0-8 hr,"[5]; Stage 1, oral 200 mg, 6 patients",78.3 ng·h/mL
same,T1/2,"[5]; Stage 1, oral 200 mg, n = 5",9.0 (5) hours
same,approximate oral bioavailability,"[5]; Stage 1, oral dosing up to 200 mg, compared with prior phase 1 IV data",about 0.1%
same,bioavailability,"[5]; human, plasma, oral, PD patients, estimated from pharmacokinetic behavior of intravenously administered squalamine in prior clinical studies",< 0.3%
same,cumulative response rate (CSBM within 24 hours of dosing),[6]; 25 mg,25%
same,cumulative response rate (CSBM within 24 hours of dosing),[6]; 200 mg (maximum),80%
same,solubility in water,[7]; neutral pH,weakly soluble
same,dissolution in water,[7]; pH<3.5 (the pH of gastric fluid),readily dissolves
